Patent US9474790B2, “Stable, protracted GLP-1/glucagon receptor co-agonists for medical use” (Novo Nordisk A/S, priority 2013, dated 2016)
Numbered stars: 1 amine (or outer) side, 2 acyl side, 3 side chain; on linkers, the order of the positions; unused ones are H or OH. Square brackets hold non-standard residues; d marks the D form. Side chains are listed from the residue outwards. Peptide text beside a SMILES is read from it. * marks the point of attachment. C18 diacid = O=C(O)CCCCCCCCCCCCCCCCC(=O)*; γGlu = O=C(O)[C@H](CCC(=O)[*:2])N[*:1]; Ac4c = NC1(C(=O)O)CCC1; AEEA = NCCOCCOCC(=O)O; Aib = CC(C)(N)C(=O)O

Molecular target: T1, human GLP-1 receptor (Homo sapiens, UniProt P43220)
T1 construct: expressed in transfected cells; host or cells: BHK cells (parent BHKTS13), clone FCW467-12A/KZ10-1, with CRE luciferase
T1 sequence (P43220 24-463): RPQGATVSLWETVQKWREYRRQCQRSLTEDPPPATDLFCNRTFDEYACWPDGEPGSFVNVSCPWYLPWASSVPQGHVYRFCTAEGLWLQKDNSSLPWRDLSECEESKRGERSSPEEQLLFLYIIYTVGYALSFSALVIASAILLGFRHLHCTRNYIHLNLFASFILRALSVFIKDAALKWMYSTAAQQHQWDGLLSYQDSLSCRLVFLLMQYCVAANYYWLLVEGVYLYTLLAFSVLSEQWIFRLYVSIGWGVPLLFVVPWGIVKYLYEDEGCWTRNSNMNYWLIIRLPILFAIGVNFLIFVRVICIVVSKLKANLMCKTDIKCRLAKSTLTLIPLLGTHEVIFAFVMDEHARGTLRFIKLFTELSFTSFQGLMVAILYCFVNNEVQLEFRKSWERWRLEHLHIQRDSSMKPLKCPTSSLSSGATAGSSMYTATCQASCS
Assay: GLP-1 receptor binding, 125I-GLP-1 displacement SPA on isolated membranes
Settings: displacement of 125I-GLP-1 from membranes; read-out: IC50 GLP-1R
Method in brief: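 SPA displacement of 125I-GLP-1(7-36)NH2 from membranes of BHK cells expressing human GLP-1 receptor, with WGA beads, in 50 mM HEPES, 5 mM EGTA, 5 mM MgCl2, 0.005% Tween 20, pH 7.4. Incubated 2 h at 30°C; IC50 by non-linear regression, run at ≤0.001% or 2.0% final serum albumin.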

SMILES | IC50 [nM]
CC(C)C[C@H](NC(=O)[C@H](Cc1ccc(O)cc1)NC(=O)[C@H](CCCCN)NC(=O)[C@H](CO)NC(=O)[C@H](CC(C)C)NC(=O)[C@H](CC(=O)O)NC(=O)[C@H](CO)NC(=O)[C@@H](NC(=O)[C@H](Cc1ccccc1)NC(=O)[C@@H](NC(=O)CNC(=O)[C@H](Cc1c[nH]cn1)NC(=O)C(C)(C)NC(=O)[C@@H](N)Cc1c[nH]cn1)[C@@H](C)O)[C@@H](C)O)C(=O)N[C@@H](CCC(=O)O)C(=O)N[C@@H](CO)C(=O)N[C@@H](CCCCN)C(=O)N[C@@H](CCCNC(=N)N)C(=O)N[C@@H](C)C(=O)N[C@@H](CCCNC(=N)N)C(=O)N[C@@H](CCC(=O)O)C(=O)N[C@@H](Cc1ccccc1)C(=O)N[C@H](C(=O)N[C@@H](CCC(N)=O)C(=O)N[C@@H](Cc1c[nH]c2ccccc12)C(=O)N[C@@H](CC(C)C)C(=O)N[C@@H](CC(C)C)C(=O)N[C@@H](CCCCNC(=O)CC[C@H](NC(=O)CC[C@H](NC(=O)CC[C@H](NC(=O)CCCCCCCCCCCCCCCCC(=O)O)C(=O)O)C(=O)O)C(=O)O)C(=O)N[C@H](C(N)=O)[C@@H](C)O)C(C)C [Example 34, N^ε28-[(4S)-4-carboxy-4-[[(4S)-4-carboxy-4-[[(4S)-4-carboxy-4-(17-carboxyheptadecanoylamino)butanoyl]amino]butanoyl]amino]butanoyl]-[Aib2,His3,Leu10,Glu15,Lys17,Arg20,Glu21,Leu27,Lys28]-Glucagon amide] (H-H[Aib]HGTFTSDLSKYLESKRAREFVQWLLK([γGlu-γGlu-γGlu-C18 diacid])T-NH2; N-terminus assumed) | 0.2
CC(C)C[C@H](NC(=O)[C@H](CC(C)C)NC(=O)[C@H](Cc1c[nH]c2ccccc12)NC(=O)[C@H](CCC(N)=O)NC(=O)[C@@H](NC(=O)[C@H](Cc1ccccc1)NC(=O)[C@H](CCC(=O)O)NC(=O)[C@H](CCCNC(=N)N)NC(=O)[C@H](C)NC(=O)[C@H](CCCNC(=N)N)NC(=O)[C@H](CCCNC(=N)N)NC(=O)[C@H](CO)NC(=O)[C@H](CCC(=O)O)NC(=O)[C@H](CC(C)C)NC(=O)[C@H](Cc1ccc(O)cc1)NC(=O)[C@H](CCCCN)NC(=O)[C@H](CO)NC(=O)[C@H](CC(C)C)NC(=O)[C@H](CC(=O)O)NC(=O)[C@H](CO)NC(=O)[C@@H](NC(=O)[C@H](Cc1ccccc1)NC(=O)[C@@H](NC(=O)CNC(=O)[C@H](CCC(N)=O)NC(=O)C(C)(C)NC(=O)[C@@H](N)Cc1c[nH]cn1)[C@@H](C)O)[C@@H](C)O)C(C)C)C(=O)N[C@@H](CC(N)=O)C(=O)N[C@@H](CCCCNC(=O)CC[C@H](NC(=O)COCCOCCNC(=O)COCCOCCNC(=O)CC[C@H](NC(=O)CC[C@H](NC(=O)CCCCCCCCCCCCCCCCC(=O)O)C(=O)O)C(=O)O)C(=O)O)C(N)=O [Example 21, N^ε29-[(4S)-4-carboxy-4-[[2-[2-[2-[[2-[2-[2-[[(4S)-4-carboxy-4-[[(4S)-4-carboxy-4-(17-carboxyheptadecanoylamino)butanoyl]amino]butanoyl]amino]ethoxy]ethoxy]acetyl]amino]ethoxy]ethoxy]acetyl]amino]butanoyl]-[Aib2,Leu10,Glu15,Arg20,Glu21,Leu27,Lys29]-Glucagon amide] (H-H[Aib]QGTFTSDLSKYLESRRAREFVQWLLNK([γGlu-AEEA-AEEA-γGlu-γGlu-C18 diacid])-NH2; N-terminus assumed) | 0.3

Next, values leading:

IC50 [nM] | SMILES
0.6 | CC(C)C[C@H](NC(=O)[C@H](Cc1ccc(O)cc1)NC(=O)[C@H](CCCCN)NC(=O)[C@H](CO)NC(=O)[C@H](CC(C)C)NC(=O)[C@H](CC(=O)O)NC(=O)[C@H](CO)NC(=O)[C@@H](NC(=O)[C@H](Cc1ccccc1)NC(=O)[C@@H](NC(=O)CNC(=O)[C@H](CCC(N)=O)NC(=O)C(C)(C)NC(=O)[C@@H](N)Cc1c[nH]cn1)[C@@H](C)O)[C@@H](C)O)C(=O)N[C@@H](CC(=O)O)C(=O)N[C@@H](C)C(=O)N[C@@H](CCCNC(=N)N)C(=O)N[C@@H](CCCNC(=N)N)C(=O)N[C@@H](C)C(=O)N[C@@H](CCCNC(=N)N)C(=O)N[C@@H](CC(=O)O)C(=O)N[C@@H](Cc1ccccc1)C(=O)N[C@H](C(=O)N[C@@H](CCC(N)=O)C(=O)N[C@@H](Cc1c[nH]c2ccccc12)C(=O)N[C@@H](CC(C)C)C(=O)N[C@@H](CC(C)C)C(=O)N[C@@H](CO)C(=O)N[C@@H](CCCCNC(=O)CC[C@H](NC(=O)CC[C@H](NC(=O)COCCOCCNC(=O)COCCOCCNC(=O)CC[C@H](NC(=O)CCCCCCCCCCCCCCCCC(=O)O)C(=O)O)C(=O)O)C(=O)O)C(N)=O)C(C)C [Example 66, N^ε29-[(4S)-4-carboxy-4-[[(4S)-4-carboxy-4-[[2-[2-[2-[[2-[2-[2-[[(4S)-4-carboxy-4-(17-carboxyheptadecanoylamino)butanoyl]amino]ethoxy]ethoxy]acetyl]amino]ethoxy]ethoxy]acetyl]amino]butanoyl]amino]butanoyl]-[Aib2,Leu10,Ala16,Arg20,Leu27,Ser28,Lys29]-Glucagon amide] (H-H[Aib]QGTFTSDLSKYLDARRARDFVQWLLSK([γGlu-γGlu-AEEA-AEEA-γGlu-C18 diacid])-NH2; N-terminus assumed)
1.1 | CC(C)C[C@H](NC(=O)[C@H](CC(=O)O)NC(=O)[C@H](CC(C)C)NC(=O)[C@H](Cc1ccc(O)cc1)NC(=O)[C@H](CCCCN)NC(=O)[C@H](CO)NC(=O)[C@H](CC(C)C)NC(=O)[C@H](CC(=O)O)NC(=O)[C@H](CO)NC(=O)[C@@H](NC(=O)[C@H](Cc1ccccc1)NC(=O)[C@@H](NC(=O)CNC(=O)[C@H](CCC(N)=O)NC(=O)C(C)(C)NC(=O)[C@@H](N)Cc1c[nH]cn1)[C@@H](C)O)[C@@H](C)O)C(=O)N[C@@H](CCCNC(=N)N)C(=O)N[C@@H](CCCNC(=N)N)C(=O)N[C@@H](C)C(=O)N[C@@H](CCCNC(=N)N)C(=O)N[C@@H](CC(=O)O)C(=O)N[C@@H](Cc1ccccc1)C(=O)N[C@H](C(=O)N[C@@H](CCC(N)=O)C(=O)N[C@@H](Cc1c[nH]c2ccccc12)C(=O)N[C@@H](CC(C)C)C(=O)N[C@@H](CC(C)C)C(=O)N[C@@H](CCCCNC(=O)CNC(=O)[C@H](CO)NC(=O)[C@H](CCC(=O)O)NC(=O)[C@H](CO)NC(=O)CC[C@H](NC(=O)CC[C@H](NC(=O)CCCCCCCCCCCCCCCCC(=O)O)C(=O)O)C(=O)O)C(=O)N[C@H](C(N)=O)[C@@H](C)O)C(C)C [Example 55, N^ε28-[2-[[(2S)-2-[[(2S)-4-carboxy-2-[[(2S)-2-[[(4S)-4-carboxy-4-[[(4S)-4-carboxy-4-(17-carboxyheptadecanoylamino)butanoyl]amino]butanoyl]amino]-3-hydroxypropanoyl]amino]butanoyl]amino]-3-hydroxypropanoyl]amino]acetyl]-[Aib2,Leu10,Leu16,Arg20,Leu27,Lys28]-Glucagon amide] (H-H[Aib]QGTFTSDLSKYLDLRRARDFVQWLLK([Gly-Ser-Glu-Ser-γGlu-γGlu-C18 diacid])T-NH2; N-terminus assumed)
0.3 | CC(C)C[C@H](NC(=O)[C@H](Cc1ccc(O)cc1)NC(=O)[C@H](CCCCN)NC(=O)[C@H](CO)NC(=O)[C@H](CC(C)C)NC(=O)[C@H](CC(=O)O)NC(=O)[C@H](CO)NC(=O)[C@@H](NC(=O)[C@H](Cc1ccccc1)NC(=O)[C@@H](NC(=O)CNC(=O)[C@H](CCC(N)=O)NC(=O)C1(NC(=O)[C@@H](N)Cc2c[nH]cn2)CCC1)[C@@H](C)O)[C@@H](C)O)C(=O)N[C@@H](CCC(=O)O)C(=O)N[C@@H](CO)C(=O)N[C@@H](CCCCN)C(=O)N[C@@H](CCCNC(=N)N)C(=O)N[C@@H](C)C(=O)N[C@@H](CCCNC(=N)N)C(=O)N[C@@H](CCC(=O)O)C(=O)N[C@@H](Cc1ccccc1)C(=O)N[C@H](C(=O)N[C@@H](CCC(N)=O)C(=O)N[C@@H](Cc1c[nH]c2ccccc12)C(=O)N[C@@H](CC(C)C)C(=O)N[C@@H](CC(C)C)C(=O)N[C@@H](CCCCNC(=O)CC[C@H](NC(=O)CC[C@H](NC(=O)[C@H](CO)NC(=O)[C@H](CCC(=O)O)NC(=O)[C@H](CO)NC(=O)CC[C@H](NC(=O)CC[C@H](NC(=O)CCCCCCCCCCCCCCCCC(=O)O)C(=O)O)C(=O)O)C(=O)O)C(=O)O)C(=O)N[C@H](C(N)=O)[C@@H](C)O)C(C)C [Example 68, N^ε28-[(4S)-4-carboxy-4-[[(4S)-4-carboxy-4-[[(2S)-2-[[(2S)-4-carboxy-2-[[(2S)-2-[[(4S)-4-carboxy-4-[[(4S)-4-carboxy-4-(17-carboxyheptadecanoylamino)butanoyl]amino]butanoyl]amino]-3-hydroxypropanoyl]amino]butanoyl]amino]-3-hydroxypropanoyl]amino]butanoyl]amino]butanoyl]-[Acb2,Leu10,Glu15,Lys17,Arg20,Glu21,Leu27,Lys28]-Glucagon amide] (H-H[Ac4c]QGTFTSDLSKYLESKRAREFVQWLLK([γGlu-γGlu-Ser-Glu-Ser-γGlu-γGlu-C18 diacid])T-NH2; N-terminus assumed)
